Data: patent US11155539B2, “4-pyridinylmethyl-morpholine derivatives and the use thereof as medicament” (Boehringer Ingelheim International GmbH, priority 2018, dated 2021)
pIC50: −log10 of the molar value.

Key:
Nav1.6 = Nav1.6 (Homo sapiens, UniProt Q9UQD0); test: Nav 1.6 inhibition, IonWorks Quattro electrophysiology; format: cell-based; details: normalized to vehicle control (0%) and maximal inhibition control (100%)
Protocol: Determination of Nav 1.6.Inhibition
IonWorks Quattro electrophysiological platform
The compounds were prepared in DMSO at 300× the final assay concentrations of 1 and 5 μM.
The 300×DMSO stock solutions were transferred into assay plates where 2 μl per well of each 300× stock solution were placed. All assay plates were stored at −80° C. until the day of assay.
On the day of the assay, the appropriate assay plate was thawed at room temperature, centrifuged, and 198 μl of external recording solution was added and mixed thoroughly. This provided a 1:100 dilution. A further 1:3 dilution occurred upon addition to the cells in the IonWorks Quattro electrophysiological platform, giving a 1:300 dilution in total. On each assay plate, at least 8 wells were reserved for vehicle control (0.3% DMSO) and at least 8 wells for each positive control specific to the cell line tested. The positive controls were tested at a maximal blocking and an approximate IC50 concentration. As positive control Lidocaine at concentrations of 30 and 1000 μM was used.
The solutions for recording Nav1.6 currents were as follows:
Amphotericin B was used to obtain electrical access to the cell interior at a final concentration of 200 μg/ml in internal recording solution.
State-dependent inhibition: Sodium channels when held at depolarized potential or long test pulse, the channels open and inactivate and then stay inactivated until the membrane potential is stepped back to hyperpolarized potentials, when the inactivated channels recover from inactivation into closed state.
Cells were held at −120 mV. In order to completely inactivate the sodium channels (pulse 1), the cells were pulsed to +0 mV for 2500 ms and stepped back to −120 mV for 10 ms (to completely recover from inactivation, however channels that had drugs bound to them will not recover from inactivation) before stepping to +0 mV for 20 ms (pulse 2).
Both the positive and vehicle control data associated with each cell line assayed are shown below as an example. The mean is shown for each positive and negative control as solid symbol with the total number of individual well replicates given next to the solid symbol. In addition, the individual data of each well are shown on the graph as open symbols so that the variation about the mean value can be readily assessed.
Shown below are the assay controls for the Nav1.6 IonWorks Quattro assay.
Tables 3 and 4 show the normalized percentage inhibition of Nav1.6 channel. […] (see also the figure Assay Control Results above).

MDR1 (P-gp) = target: T1, MDR1 (P-gp) (Homo sapiens, UniProt P08183); test: MDCK assay P-gp (permeability across MDCK-MDR1 monolayers); format: in vitro ADME; details: for Papp A→B at 2 h: apical-to-basal, MDCK-MDR1 monolayers, pH 7.4; for efflux ratio at 2 h: pH 7.4, Papp (b-a) divided by Papp (a-b), MDCK-MDR1, read-out: efflux ratio PEBA/PEAB
T1 construct: expressed in transfected cells; host or cells: MDCKII (Madin-Darby canine kidney)
T1 sequence (P08183 whole entry): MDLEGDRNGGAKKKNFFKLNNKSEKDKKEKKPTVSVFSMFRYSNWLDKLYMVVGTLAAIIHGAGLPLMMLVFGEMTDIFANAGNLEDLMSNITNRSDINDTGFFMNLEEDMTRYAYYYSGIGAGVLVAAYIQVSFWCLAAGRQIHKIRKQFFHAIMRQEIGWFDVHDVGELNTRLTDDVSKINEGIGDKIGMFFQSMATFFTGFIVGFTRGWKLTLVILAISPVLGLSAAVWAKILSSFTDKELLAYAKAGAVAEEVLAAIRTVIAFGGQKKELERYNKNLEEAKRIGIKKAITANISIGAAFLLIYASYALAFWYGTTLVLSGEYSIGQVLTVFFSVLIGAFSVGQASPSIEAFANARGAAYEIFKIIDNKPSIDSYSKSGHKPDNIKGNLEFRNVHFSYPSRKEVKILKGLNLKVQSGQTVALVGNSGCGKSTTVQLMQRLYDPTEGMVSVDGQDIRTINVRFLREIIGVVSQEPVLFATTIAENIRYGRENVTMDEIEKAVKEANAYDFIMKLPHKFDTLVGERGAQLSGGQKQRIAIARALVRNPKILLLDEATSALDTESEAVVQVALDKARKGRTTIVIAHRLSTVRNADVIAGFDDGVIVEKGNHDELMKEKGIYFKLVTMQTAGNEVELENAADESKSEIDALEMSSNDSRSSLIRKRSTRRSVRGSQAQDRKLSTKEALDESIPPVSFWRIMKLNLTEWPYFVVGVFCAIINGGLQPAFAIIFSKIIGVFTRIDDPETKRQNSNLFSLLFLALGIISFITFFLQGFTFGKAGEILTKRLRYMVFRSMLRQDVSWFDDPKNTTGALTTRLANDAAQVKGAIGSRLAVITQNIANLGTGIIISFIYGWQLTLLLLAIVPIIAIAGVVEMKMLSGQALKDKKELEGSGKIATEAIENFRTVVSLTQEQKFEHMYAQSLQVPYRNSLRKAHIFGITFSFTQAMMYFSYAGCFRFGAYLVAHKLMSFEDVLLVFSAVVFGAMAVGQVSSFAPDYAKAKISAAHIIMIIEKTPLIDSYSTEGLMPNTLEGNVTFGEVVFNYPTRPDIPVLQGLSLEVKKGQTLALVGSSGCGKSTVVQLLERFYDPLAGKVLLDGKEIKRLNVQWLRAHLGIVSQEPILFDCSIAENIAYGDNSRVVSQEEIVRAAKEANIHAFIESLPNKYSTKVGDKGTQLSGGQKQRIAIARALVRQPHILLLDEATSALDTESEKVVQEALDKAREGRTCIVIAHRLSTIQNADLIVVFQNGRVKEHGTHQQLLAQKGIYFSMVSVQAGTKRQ
Protocol: The MDCK assays provide information on the potential of a compound to pass the blood brain barrier. Permeability measurements across polarized, confluent MDCK-MDR1 cell monolayers grown on permeable filter supports are used as an in vitro absorption model: apparent permeability coefficients (PE) of the compounds across the MDCK-MDR1 cell monolayers are measured (pH 7.4, 37° C.) in apical-to-basal (AB) and basal-to-apical (BA) transport direction. The AB permeability (PEAB) represents drug absorption from the blood into the brain and the BA permeability (PEBA) drug efflux from the brain back into the blood via both, passive permeability as well as active transport mechanisms mediated by efflux and uptake transporters that are expressed on the MDCK-MDR1 cells, predominantly by the overexpressed human MDR1. Identical or similar permeabilities in both transport directions indicate passive permeation (PEBA/PEAB≤1), vectorial permeability points to additional active transport mechanisms. Higher PEBA than PEAB (PEBA/PEAB>5) indicates the involvement of active efflux mediated by MDR1, which might compromise the goal to achieve sufficient brain exposure. Therefore, this assay provides valuable support for selection of compounds applicable for further in vivo testing. High permeability not limited by efflux at the blood brain barrier is a favorable characteristic for compounds that are to be used for drugs acting primarily in the CNS.
Apparent permeability coefficients (Papp) of the compounds across the MDCK-MDR1 monolayers (MDCKII cells transfected with human MDR1 cDNA expression plasmid) are measured in apical-to-basal (AB) and basal-to-apical (BA) direction. MDCK-MDR1 cells (6×10^5 cells/cm^2) are seeded on filter inserts (Corning, Transwell, polycarbonate, 0.4 μm pore size) and cultured for 9 to 10 days. Compounds dissolved in DMSO stock solution (1-20 mM) are diluted with HTP-4 aqueous buffer (128.13 mM NaCl, 5.36 mM KCl, 1 mM MgSO4, 1.8 mM CaCl2, 4.17 mM NaHCO3, 1.19 mM Na2HPO4, 0.41 mM NaH2PO4, 15 mM HEPES, 20 mM glucose, pH 7.4) supplemented with 0.25% BSA to prepare the transport solutions (final concentration: 1 or 10 μM, final DMSO<=0.5%). The transport solution is applied to the apical or basolateral donor side for measuring A-B or B-A permeability, respectively. The receiver side contains HTP-4 buffer supplemented with 0.25% BSA. Samples are collected at the start and end of experiment from the donor and at various time intervals for up to 2 hours also from the receiver side for concentration measurement by HPLC-MS/MS (RapidFire High-throughput MS System (Agilent) coupled to QTrap 6500 (AB Sciex) or TSQ Vantage (Thermo Scientific)). Sampled receiver volumes are replaced with fresh receiver solution. Efflux ratio is calculated dividing the Papp (b-a) values by the Papp (a-b) values.

[1] = Metabolic stability in pooled human liver microsomes; format: in vitro ADME; details: pH 7.6, 1 μM compound, 37° C., NADPH, read-out: Half-life - t½ human liver microsomes
Text: Stability in human liver microsomes refers to the susceptibility of compounds to biotransformation in the context of selecting and/or designing drugs with favorable pharmacokinetic properties. The primary site of metabolism for many drugs is the liver. Human liver microsomes contain the cytochrome P450s (CYPs), and thus represent a model system for studying drug metabolism in vitro Enhanced stability in human liver microsomes is associated with several advantages, including increased bioavailability and adequate half-life, which can enable lower and less frequent dosing of patients. Thus, enhanced stability in human liver microsomes is a favorable characteristic for compounds that are to be used for drugs.
The metabolic degradation of the test compound was assayed at 37° C. with pooled human liver microsomes. The final incubation volume of 60 μl per time point contains TRIS buffer pH 7.6 at room temperature (0.1 M), magnesium chloride (5 mM aqueous solution), microsomal protein (1 mg/mL for human) and the test compound at a final concentration of 1 μM. Following a short preincubation period at 37° C., the reactions were initiated by addition of betanicotinamide adenine dinucleotide phosphate, reduced form (NADPH, 1 mM), and terminated by transferring an aliquot into acetonitril after different time points. After centrifugation (10000 g, 5 min), an aliquot of the supernatant was assayed by HPLC-MS/MS as described above for the MDCK assay P-gp for the amount of parent compound. The half-life was determined by the slope of the semi-logarithmic plot of the concentration-time profile.

NMDA NR1/NR2B receptor [2] = target: T2, NMDA NR1/NR2B receptor (Homo sapiens, UniProt Q05586+Q13224); test: In vitro NMDA NR1/NR2B cell assay (FLIPR, intracellular calcium induced by glycine/glutamate); format: cell-based; details: HEK293 cells expressing NMDA NR1/NR2B; 20 μM glycine, 1 μM glutamate; read-out: IC50 (in vitro NR2B affinity, FLIPR assay)
T2 construct: host or cells: HEK293, tetracycline-inducible expression
T2 sequence (Q13224 27-1484, other chains not shown): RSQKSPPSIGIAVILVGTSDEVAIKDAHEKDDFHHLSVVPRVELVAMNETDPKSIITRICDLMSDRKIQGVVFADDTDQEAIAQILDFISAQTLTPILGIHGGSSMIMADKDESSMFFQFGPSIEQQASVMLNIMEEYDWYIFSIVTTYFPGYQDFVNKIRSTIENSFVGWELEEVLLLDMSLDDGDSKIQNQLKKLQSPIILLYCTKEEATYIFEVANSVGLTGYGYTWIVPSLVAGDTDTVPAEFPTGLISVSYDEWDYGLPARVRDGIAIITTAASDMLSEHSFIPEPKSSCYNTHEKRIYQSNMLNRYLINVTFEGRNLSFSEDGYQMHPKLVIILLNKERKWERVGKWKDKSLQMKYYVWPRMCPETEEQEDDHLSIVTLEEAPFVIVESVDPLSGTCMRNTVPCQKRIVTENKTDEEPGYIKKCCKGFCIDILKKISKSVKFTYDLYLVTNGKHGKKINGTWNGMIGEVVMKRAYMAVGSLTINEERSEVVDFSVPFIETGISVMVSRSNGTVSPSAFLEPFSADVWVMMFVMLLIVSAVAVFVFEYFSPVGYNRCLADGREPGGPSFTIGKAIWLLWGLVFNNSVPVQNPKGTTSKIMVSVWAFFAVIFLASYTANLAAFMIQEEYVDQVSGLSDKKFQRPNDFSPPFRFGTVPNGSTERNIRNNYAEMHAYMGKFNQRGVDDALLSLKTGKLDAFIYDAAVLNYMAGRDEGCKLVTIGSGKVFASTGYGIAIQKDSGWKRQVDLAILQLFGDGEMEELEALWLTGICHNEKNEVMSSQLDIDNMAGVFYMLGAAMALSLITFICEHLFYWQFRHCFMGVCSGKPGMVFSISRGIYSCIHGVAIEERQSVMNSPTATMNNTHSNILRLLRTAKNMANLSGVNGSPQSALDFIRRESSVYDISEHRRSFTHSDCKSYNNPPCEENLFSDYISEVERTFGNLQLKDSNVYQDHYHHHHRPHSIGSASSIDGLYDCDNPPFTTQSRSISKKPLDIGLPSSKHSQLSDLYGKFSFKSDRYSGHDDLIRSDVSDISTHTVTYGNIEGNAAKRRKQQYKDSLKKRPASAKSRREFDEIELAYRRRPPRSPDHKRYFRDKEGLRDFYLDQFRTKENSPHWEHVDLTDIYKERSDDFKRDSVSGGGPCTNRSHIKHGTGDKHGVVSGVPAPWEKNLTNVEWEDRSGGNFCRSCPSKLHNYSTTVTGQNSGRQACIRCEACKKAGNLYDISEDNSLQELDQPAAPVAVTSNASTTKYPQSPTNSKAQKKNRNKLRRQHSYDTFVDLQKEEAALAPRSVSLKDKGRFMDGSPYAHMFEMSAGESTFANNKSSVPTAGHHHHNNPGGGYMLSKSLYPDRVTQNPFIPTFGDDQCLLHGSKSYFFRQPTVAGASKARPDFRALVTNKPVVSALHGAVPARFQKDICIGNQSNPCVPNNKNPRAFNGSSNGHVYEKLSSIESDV
Protocol: (§1) A human HEK293 cell line with tetracyclin-inducible expression of NMDA NR1/NR2B receptor was used as a test system for compound efficacy and potency. The cell line was purchased from ChanTest, Catalog #CT6121. Compound activity was determined by measuring the effect of compounds on intracellular calcium concentration induced by glycine/glutamate agonism in a FLIPRtetra system (Molecular Devices).
(§2) The cells were obtained as frozen cells in cryo-vials and stored until use at −150° C. Cells were grown in culture medium (DMEM/F12, 10% FBS, 5 μg/mL Blasticidin, 150 μg/mL Zeozin, 500 μg/mL Geneticin). […] For sub-culturing the cells were detached from flasks by Versene. For the assay, cells were detached, washed twice with induction medium (DMEM/F12 without glutamine, 10% FBS, 2 μg/mL Tetracycline, 2 mM Ketamine) and seeded to 384 well pure coat amine plates (Becton Dickinson, 50000 cells per well in 50 μl) 48 h prior to assay in induction medium.
(§3) The test compounds were dissolved in 100% DMSO at a concentration of 10 mM and in a first step diluted in DMSO to a concentration of 5 mM, followed by serial dilution steps in 100% DMSO. Dilution factor and number of dilution steps may vary according to needs. Typically 8 different concentrations by 1:5 dilutions were prepared in duplicate, further intermediate dilutions (1:37.5) of the substances were carried out with aqueous assay buffer (137 mM NaCl, 4 mM KCl, 1.8 mM CaCl2, 10 mM HEPES, 10 mM Glucose, pH 7.4) resulting in a compound concentration 3 times above the final test concentration and DMSO at 2.7% resulting in 0.9% final DMSO concentration in the assay.
(§4) At the assay day cells were washed 3× with assay buffer (as described above), 10 μL buffer remained in the wells after washing. 10 μL Ca kit loading buffer (AAT Bioquest; prepared from the kit containing the following components: Component A: Fluo-8 NW dissolved in 200 μL DMSO and 20 μl of this solution are mixed with 10 ml buffer prepared out of component B and C, Component B: 10× Pluronic® F127 Plus diluted 1:10 in component C, Component C: HHBS (Hanks with 20 mM Hepes) was added to the cells and the plates were incubated with lid for 60 minutes at room temperature. 20 μl assay buffer containing 60 μM glycine (20 μM final) and 3 μM glutamate (1 μM final) was added to column 1-23, column 24 got assay buffer without glycine/glutamate to serve as negative unstimulated control. Fluorescence (indicating the calcium influx as a result of the NR1/NR2B ion channel activation) was read on the FLIPRtetra device for 60 seconds to monitor the glutamate induced effects. After 2 minutes 20 μL of compound dilution prepared as described above or controls (row 1-22) in assay buffer were carefully added to the wells. […] The average of 2 measurements at 5 minutes and […] 10 seconds after compound addition is calculated and further used for IC50 calculations. Each assay microtiter compound dilution plate contained wells (in column 23 or 24) with DMSO controls instead of compound as controls for glycine/glutamate induced fluorescence (high controls) and wells with 1 μM of a reference NR2B NAM as low controls (Compound 22; reference: Layton, Mark E et al, ACS Chemical Neuroscience 2011, 2(7), 352-362).
(§5) The output file of the reader contains the well number and measured average fluorescence units. For data evaluation and calculation, the measurement of the low control was set as 0% control and the measurement of the high control was set as 100% control. The IC50 values were calculated using the standard 4 parameter logistic regression formula. Calculation: [y=(a−d)/(1+(x/c)^b)+d], a=low value, d=high value; x=conc M; c=IC50 M; b=slope.

NMDA NR1/NR2B receptor [3] = target: T3, NMDA NR1/NR2B receptor (Homo sapiens, UniProt Q13224); test: as above; format: cell-based; details: see Table 2
T3 construct: host or cells: HEK293, tetracycline-inducible expression
Protocol: as §1, §2, §3, §4, §5

Nav1.6, sequence (Q9UQD0 whole entry): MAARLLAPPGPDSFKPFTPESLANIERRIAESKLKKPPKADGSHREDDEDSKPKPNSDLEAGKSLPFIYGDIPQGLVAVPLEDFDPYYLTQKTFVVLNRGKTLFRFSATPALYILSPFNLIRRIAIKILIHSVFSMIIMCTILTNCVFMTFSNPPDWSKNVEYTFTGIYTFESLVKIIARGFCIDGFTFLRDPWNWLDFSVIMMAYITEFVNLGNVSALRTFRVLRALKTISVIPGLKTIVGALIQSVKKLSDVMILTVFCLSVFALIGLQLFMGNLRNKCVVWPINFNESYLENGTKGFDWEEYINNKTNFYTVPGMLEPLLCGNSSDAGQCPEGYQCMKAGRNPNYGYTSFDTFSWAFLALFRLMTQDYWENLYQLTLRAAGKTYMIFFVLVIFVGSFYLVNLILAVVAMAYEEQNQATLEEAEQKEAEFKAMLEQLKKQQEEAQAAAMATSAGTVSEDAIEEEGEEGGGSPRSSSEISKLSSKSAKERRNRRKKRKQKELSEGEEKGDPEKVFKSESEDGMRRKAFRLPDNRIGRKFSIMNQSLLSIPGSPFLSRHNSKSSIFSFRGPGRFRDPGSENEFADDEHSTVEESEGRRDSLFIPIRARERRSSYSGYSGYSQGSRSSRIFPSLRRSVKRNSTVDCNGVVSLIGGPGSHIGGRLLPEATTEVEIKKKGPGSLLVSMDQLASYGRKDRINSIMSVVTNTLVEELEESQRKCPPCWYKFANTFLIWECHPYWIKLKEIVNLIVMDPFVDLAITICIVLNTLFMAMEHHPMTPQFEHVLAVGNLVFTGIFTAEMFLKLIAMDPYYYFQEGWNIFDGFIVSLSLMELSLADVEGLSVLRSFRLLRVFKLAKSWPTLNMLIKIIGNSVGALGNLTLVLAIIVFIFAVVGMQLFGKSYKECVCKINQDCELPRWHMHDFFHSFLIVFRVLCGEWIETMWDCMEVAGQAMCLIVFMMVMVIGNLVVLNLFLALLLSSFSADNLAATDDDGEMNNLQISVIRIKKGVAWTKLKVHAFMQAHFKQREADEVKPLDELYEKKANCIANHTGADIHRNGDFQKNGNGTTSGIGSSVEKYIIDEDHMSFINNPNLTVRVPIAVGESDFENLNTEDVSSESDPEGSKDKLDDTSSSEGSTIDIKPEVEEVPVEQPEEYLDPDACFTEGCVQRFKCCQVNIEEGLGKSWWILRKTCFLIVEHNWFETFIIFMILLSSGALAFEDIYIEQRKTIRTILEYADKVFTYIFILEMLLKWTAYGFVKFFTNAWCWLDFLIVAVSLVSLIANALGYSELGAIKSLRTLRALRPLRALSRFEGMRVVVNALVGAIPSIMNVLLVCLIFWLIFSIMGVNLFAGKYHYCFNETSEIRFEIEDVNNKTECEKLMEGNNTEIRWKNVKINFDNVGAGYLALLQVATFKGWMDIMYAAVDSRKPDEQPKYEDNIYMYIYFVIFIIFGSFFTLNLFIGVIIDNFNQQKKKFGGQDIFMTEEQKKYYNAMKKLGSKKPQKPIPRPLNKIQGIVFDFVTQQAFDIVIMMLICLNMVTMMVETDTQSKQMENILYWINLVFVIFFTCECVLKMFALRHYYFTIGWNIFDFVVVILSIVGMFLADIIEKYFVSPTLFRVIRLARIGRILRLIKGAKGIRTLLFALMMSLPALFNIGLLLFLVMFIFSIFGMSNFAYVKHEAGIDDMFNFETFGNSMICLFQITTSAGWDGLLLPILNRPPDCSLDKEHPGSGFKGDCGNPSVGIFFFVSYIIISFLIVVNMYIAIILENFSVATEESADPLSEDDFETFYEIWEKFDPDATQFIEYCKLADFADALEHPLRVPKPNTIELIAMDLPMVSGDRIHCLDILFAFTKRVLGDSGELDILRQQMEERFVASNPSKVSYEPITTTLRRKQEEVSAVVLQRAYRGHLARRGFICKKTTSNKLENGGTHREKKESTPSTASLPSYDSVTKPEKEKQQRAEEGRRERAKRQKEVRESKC

SMILES | inhibition at 1 µM (Nav1.6) [%] | inhibition at 5 µM (Nav1.6) [%] | Papp A→B at 2 h (MDR1 (P-gp)) [×10⁻⁶ cm/s] | efflux ratio at 2 h (MDR1 (P-gp)) | half-life at 1 μM [1] [h] | pIC50 (NMDA NR1/NR2B receptor [2]) | activity on the NR1-NR2B ion channel (in words) (NMDA NR1/NR2B receptor [3])
CNC(=O)C1CN(Cc2ccc(Oc3ccc(C)cc3C)nc2)CCO1 (centres unmarked) [Example 13] | -3.1 | -1.8 | 45 | 1 | > 2.17 | – | –
CNC(=O)C1CN(Cc2ccc(Oc3ccc(F)cc3)nc2)CCO1 (centres unmarked) [Example 14] | 0.7 | 0.4 | 92 | 0.4 | > 2.17 | – | –
CNC(=O)C1CN(Cc2ccc(Oc3ccc(Cl)cc3F)nc2)CCO1 (centres unmarked) [Example 15] | -17.4 | -1.4 | 42 | 0.7 | > 2.17 | – | –
CNC(=O)C1CN(Cc2ccc(Oc3ccc(Cl)cc3)nc2)CCO1 (centres unmarked) [Example 16] | -0.5 | 7.1 | 51 | 0.7 | > 2.17 | – | –
CNC(=O)[C@@H]1CN(Cc2ccc(Oc3ccc(F)cc3F)cn2)CCO1 [Example 31] | – | – | 63 | 0.7 | > 2.17 | 6.56 | –
CNC(=O)[C@@H]1CN(Cc2ccc(Oc3ccc(Cl)cc3F)cn2)CCO1 [Example 32] | – | – | 80 | 0.5 | > 2.17 | 6.59 | –
CNC(=O)[C@@H]1CN(Cc2ccc(Oc3ccccc3F)cn2)CCO1 [Example 33] | – | – | 71 | 0.5 | > 2.17 | 6.44 | –
CNC(=O)[C@@H]1CN(Cc2ccc(Oc3ccc(C)cc3F)cn2)CCO1 [Example 34] | – | – | 58 | 0.8 | > 2.17 | 6.88 | –
CCNC(=O)C1CN(Cc2cccc(Oc3ccccc3)c2)CCO1 (centres unmarked) [Example 100 of WO2015/130905, reference compound] | – | – | – | – | – | – | do not show any activity
O=C(NCc1ccccn1)C1CN(Cc2cccc(Oc3ccccc3)c2)CCO1 (centres unmarked) [Example 105 of WO2015/130905, reference compound] | – | – | – | – | – | – | do not show any activity
